Source: EP1672365A1, “Means and methods for determining and/or influencing cellular transportation” (priority 2004, dated 2006)
“Also recorded” adds a separate entry of the source.

Tests used:
Bcrp1 [1] = target: T1, Bcrp1 (Mus musculus, UniProt Q7TMS5); assay: Milk secretion of radiolabelled compounds after intravenous administration to lactating wild-type and Bcrp1-/- mice; assay type: in vivo; design: Bcrp1 was detected primarily in the apical membrane of alveolar epithelial cells; from tissue; host or cells: mammary gland of lactating wild-type mice (Bcrp1-/- mice as control); settings: for milk secretion in Bcrp1-/- compared to wild-type mice: lactating wild-type vs Bcrp1-/- mice; for milk-to-plasma (M/P) ratio: lactating Bcrp1-/- mice; for milk-to-plasma (M/P) ratio / milk secretion in wild-type mice: 1 mg kg-1 intravenously, 30 min; for milk secretion in wild-type mice: lactating wild-type mice
T1 sequence (Q7TMS5 1-657): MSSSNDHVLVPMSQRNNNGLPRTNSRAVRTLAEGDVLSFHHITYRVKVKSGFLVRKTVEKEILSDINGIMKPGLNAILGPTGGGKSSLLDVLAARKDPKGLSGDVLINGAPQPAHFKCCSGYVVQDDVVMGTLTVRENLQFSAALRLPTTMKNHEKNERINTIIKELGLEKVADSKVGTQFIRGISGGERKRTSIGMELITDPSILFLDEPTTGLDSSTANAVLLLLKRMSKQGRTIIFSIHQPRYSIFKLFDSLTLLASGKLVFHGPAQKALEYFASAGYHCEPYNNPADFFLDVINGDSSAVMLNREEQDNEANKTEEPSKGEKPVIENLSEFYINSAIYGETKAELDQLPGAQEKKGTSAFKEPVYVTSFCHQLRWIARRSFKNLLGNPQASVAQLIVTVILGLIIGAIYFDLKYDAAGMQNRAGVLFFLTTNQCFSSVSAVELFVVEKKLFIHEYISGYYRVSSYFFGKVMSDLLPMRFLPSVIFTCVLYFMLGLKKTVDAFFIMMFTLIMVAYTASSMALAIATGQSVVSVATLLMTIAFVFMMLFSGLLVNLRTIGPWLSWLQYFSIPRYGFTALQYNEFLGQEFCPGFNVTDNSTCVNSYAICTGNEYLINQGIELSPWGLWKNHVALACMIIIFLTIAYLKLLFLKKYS
Experimental: (§1) For intravenous drug administration, 5 µl drug solution per g body weight was injected into the tail vein of mice lightly anesthetised with methoxyflurane. Levels of radioactivity in plasma and milk were determined by liquid scintillation counting. Measurements of drug secretion into the milk were done in lactating dams with pups of approximately 10 days old. To stimulate milk secretion, oxytocin (200 µl of an 1 I.U. ml^-1 solution) was administered subcutaneously to lactating dams at 30 min before milk was collected. After intravenous administration of a drug, at the indicated time approximately 50 µl milk was collected from the 4th and 5th mammary glands by gentle vacuum suction. Immediately after milk collection, a small blood sample was collected from the tail.

Bcrp1 [2] = assay: Inhibition of Bcrp1-mediated milk secretion of topotecan by GF120918; assay type: in vivo; settings: GF120918 250 mg/kg orally 2 hours before [14C]-topotecan 1 mg/kg i.v., lactating mice
Experimental: GF120918 was suspended at […] in water for injection and concentrated stock vehicle (1:1). The concentrated stock vehicle consisted of hydroxypropyl methyl cellulose (10 g/l) and 2% Tween 80 in water for injection. Animals were administered GF120918 (250 mg/kg; 10 µl of drug solution/g body weight) by gavage into the stomach at 2 hours before [^14C]-topotecan injection. [^14C]-topotecan (1 mg/kg) was injected into the vein of mice lightly anesthetized with methoxyflurane. To stimulate milk secretion, oxytocin (200 µl of 1 I.U./ml solution) was administered subcutaneously to lactating dams at 15 min before each milk sample was collected. At indicated time points (15, 30, 60 and 120 min after [^14C]-topotecan injection), 50 µl of milk was collected from the mammary glands by gentle vacuum suction. […] At the last sampling point, animals were sacrificed by cardiac puncture after anesthesia with methoxyflurane.

human BCRP = target: T2, human BCRP (Homo sapiens, UniProt Q9UNQ0); assay: Vesicular transport assay (inside-out vesicle uptake, Sf9 membrane vesicles); assay type: biochemical; settings: 3H-riboflavin 0.25 µM, vesicles from Sf9 cells with BCRP-expressing or wild-type baculovirus, 4 mM ATP
T2 construct: made in house; host or cells: Sf9 insect cells infected with BCRP-expressing baculovirus (membrane vesicles)
T2 sequence (Q9UNQ0 1-655): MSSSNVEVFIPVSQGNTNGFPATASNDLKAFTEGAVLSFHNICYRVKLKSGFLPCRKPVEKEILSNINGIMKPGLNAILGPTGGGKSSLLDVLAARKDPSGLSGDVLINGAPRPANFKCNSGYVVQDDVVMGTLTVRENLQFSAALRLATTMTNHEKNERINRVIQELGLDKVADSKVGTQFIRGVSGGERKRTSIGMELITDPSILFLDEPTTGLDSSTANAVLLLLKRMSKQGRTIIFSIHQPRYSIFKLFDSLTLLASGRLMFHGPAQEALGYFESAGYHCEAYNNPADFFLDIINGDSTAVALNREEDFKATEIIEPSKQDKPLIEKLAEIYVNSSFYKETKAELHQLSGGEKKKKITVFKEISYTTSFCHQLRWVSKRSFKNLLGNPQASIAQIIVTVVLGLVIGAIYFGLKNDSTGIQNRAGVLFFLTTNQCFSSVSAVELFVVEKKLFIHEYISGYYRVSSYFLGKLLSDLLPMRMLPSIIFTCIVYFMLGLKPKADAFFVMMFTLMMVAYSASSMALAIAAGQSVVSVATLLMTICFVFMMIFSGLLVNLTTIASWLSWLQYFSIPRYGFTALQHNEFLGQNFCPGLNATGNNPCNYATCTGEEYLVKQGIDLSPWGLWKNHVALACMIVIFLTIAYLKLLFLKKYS
Experimental: Vesicular transport assays were performed as described (Ozvegy, C., et al. Functional characterization of the human multidrug transporter, ABCG2, expressed in insect cells. Biochem. Biophys. Res. Commun. 285, 111-117 (2001); Zelcer, N., et al. Evidence for two interacting ligand-binding sites in human MRP2 (ABCC2). J. Biol. Chem. 278, 23538-23544 (2003)), using vesicles from Sf9 cells infected with BCRP-expressing or wild-type baculovirus, in the presence or absence of 4 mM ATP. ATP-dependent transport was calculated by subtracting the uptake in absence of ATP from that in the presence of ATP.

Bcrp1 [3] = target: T1, Bcrp1; settings: in vivo
Experimental: as §1
Samples were protected from light during the whole sample pre-treatment. Methanol (4 times the sample volume) was added to plasma and milk samples to precipitate proteins. […] The flow was 1.0 ml min^-1 and the detection was performed fluorimetrically using a FP920 Intelligent Fluorescence Detector (Jasco International Co. Ltd., Tokyo, Japan) with excitation/emission wavelengths set at 372/520 nm and 40 nm bandwidth. The capacity of the flow-cell of the fluorescence detector was 16 µl. […] Calibration curves were calculated by least-squares linear regression using a weighting factor of the reciprocal of the concentration.

With `C[C@]12CC[C@H](OS(=O)(=O)O)CC1=CC[C@@H]1[C@@H]2CC[C@]2(C)C(=O)CC[C@@H]12` [DHEAS, dehydroepiandrosterone-sulfate] the “milk secretion in Bcrp1-/- compared to wild-type mice” value (Bcrp1 [1]) was “not affected”.

In the case of `COc1cc2c(cc1OC)CN(CCc1ccc(NC(=O)c3cccc4c(=O)c5cccc(OC)c5[nH]c34)cc1)CC2` [GF120918, N-{4-[2-(1,2,3,4-tetrahydro-6,7-dimethoxy-2-isoquinolinyl)-ethyl]-phenyl}-9,10-dihydro-5-methoxy-9-oxo-4-acridine carboxamide], the “effect on active secretion of topotecan into the milk by Bcrp1” value (Bcrp1 [2]) is reported as “effectively reversed; also recorded: capable of at least in part inhibiting transport of topotecan into the milk”.

With `Cn1c(N)nc2ncc(-c3ccccc3)cc21` [PhIP, 2-amino-1-methyl-6-phenylimidazo[4,5-b]pyridine] the “milk-to-plasma (M/P) ratio” value (Bcrp1 [1]) was “<= 1” and the “milk secretion in wild-type mice” value (Bcrp1 [1]) was “highly concentrated into the milk”.

In the case of `Nc1nc2ncc(CNc3ccc(C(=O)N[C@@H](CCC(=O)O)C(=O)O)cc3)nc2c(=O)[nH]1` [folic acid], the “milk secretion in Bcrp1-/- compared to wild-type mice” value (Bcrp1 [1]) is reported as “not affected”.

In the case of `Cc1cc2nc3c(=O)[nH]c(=O)nc-3n(C[C@H](O)[C@H](O)[C@H](O)CO)c2cc1C` [riboflavin], the “ATP-dependent transport by human BCRP” value (human BCRP) is reported as “confirmed ATP-dependent transport” and the “decrease in the endogenous milk secretion” value (Bcrp1 [3]) is reported as 67 fold.

`CC[C@@]1(O)C(=O)OCc2c1cc1n(c2=O)Cc2cc3c(CN(C)C)c(O)ccc3nc2-1` [topotecan] was tested, and the “milk-to-plasma (M/P) ratio” value (Bcrp1 [1]) was “<= 1” and the “milk secretion in wild-type mice” value (Bcrp1 [1]) was “highly concentrated into the milk”.

vitamin B12 was tested, and the “milk secretion in Bcrp1-/- compared to wild-type mice” value (Bcrp1 [1]) was “not affected”.
